Active and inactive are the calls of the source. No cut-off for these calls is given here.
Legend:
[1] = Toxicity in BALB/c mouse transplanted with […] cells assessed as change in creatinine level at 5 to 20 mg/kg, ip administered for 14 days by biochemical analysis; assay type: organism-based; conditions: in vivo, 336 h, dose 5-20 mg/kg, time 14 day
MCF7 [2] = assay: Induction of apoptosis in human MCF7 cells assessed as necrotic cells at 2 uM incubated for 24 hrs by Annexin V-FITC/Propidium Iodide staining based flow cytometry analysis (reference value: 0.082 %); assay type: functional
4T1 [3] = assay: Antitumor activity against mouse 4T1 cells transplanted in BALB/c mouse assessed as tumor growth inhibition rate at 10 mg/kg, ip administered for 14 days relative to control; assay type: functional; parameters: scale not given: the % may be the effect or the level left; conditions: time 14 day
MCF7 [4] = assay: Induction of DNA double-strand breaks in human MCF7 cells assessed as increase in gamma-H2AX protein expression incubated for 48 hrs by Western blotting analysis; assay type: functional, cell-based; conditions: dose 0.25-1 µM
[5] = Toxicity in BALB/c mouse transplanted with […] cells assessed as change in lactate dehydrogenase level at 5 to 20 mg/kg, ip administered for 14 days by biochemical analysis; assay type: organism-based; conditions: in vivo, 336 h, dose 5-20 mg/kg, time 14 day
MCF7 [6] = assay: Induction of apoptosis in human MCF7 cells assessed as early apoptotic cells at 2 uM incubated for 24 hrs by Annexin V-FITC/Propidium Iodide staining based flow cytometry analysis (reference value: 2.54 %); assay type: functional
MCF7 [7] = assay: Induction of apoptosis in human MCF7 cells assessed as late apoptotic cells at 2 uM incubated for 24 hrs by Annexin V-FITC/Propidium Iodide staining based flow cytometry analysis (reference value: 5.58 %); assay type: functional
[8] = Toxicity in BALB/c mouse transplanted with […] cells assessed as kidney damage at 5 to 20 mg/kg, ip administered for 14 days by hematoxylin and eosin staining based analysis; assay type: organism-based; conditions: in vivo, 336 h, dose 5-20 mg/kg, time 14 day
MCF7 [9] = assay: Induction of DNA damage in human MCF7 cells at 5 to 10 uM pre-incubated for 24 hrs by Comet assay; assay type: functional, cell-based; conditions: dose 5-10 µM
MCF7 [10] = assay: Antimigratory activity against human MCF7 cells assessed as inhibition of recovery of cells from scratch wounds incubated for 24 hrs by inverted fluorescence microscopic analysis; assay type: functional, cell-based; conditions: dose 0.125-0.5 µM
[11] = Cytotoxicity against human L02 cells assessed as inhibition of cell growth incubated for 48 hrs by MTT assay; assay type: toxicity, cell-based
MCF7 [12] = assay: Antimigratory activity against human MCF7 cells assessed as decrease in MMP-2 expression incubated for 24 hrs by Western blotting analysis; assay type: functional, cell-based; conditions: dose 125-500 nM
MCF7 [13] = assay: Inhibition of colony formation in human MCF7 cells incubated for 2 weeks by crystal violet staining based analysis; assay type: functional, cell-based; conditions: dose 0.075-1.2 µM
MCF7 [14] = assay: Inhibition of colony formation in human MCF7 cells at 0.075 uM incubated for 2 weeks by crystal violet staining based analysis; assay type: functional, cell-based
MCF7 [15] = assay: Antimigratory activity against human MCF7 cells assessed as wound healing rate at 0.125 uM incubated for 24 hrs by inverted fluorescence microscopic analysis (reference value: 42.5 %); assay type: functional
[16] = Toxicity in BALB/c mouse transplanted with […] cells assessed as change in body weight at 5 to 20 mg/kg, ip administered for 14 days; assay type: organism-based; conditions: in vivo, 336 h, dose 5-20 mg/kg, time 14 day
MDA-MB-231 = assay: Antiproliferative activity against human MDA-MB-231 cells assessed as inhibition of cell growth incubated for 48 hrs by MTT assay; assay type: functional, cell-based; conditions: MDA-MB-231, 48 h
[17] = Toxicity in BALB/c mouse transplanted with […] cells assessed as change in serum alanine aminotransferase level at 5 to 20 mg/kg, ip administered for 14 days by biochemical analysis; assay type: organism-based; conditions: in vivo, 336 h, dose 5-20 mg/kg, time 14 day
[18] = Toxicity in BALB/c mouse transplanted with […] cells assessed as change in creatine kinase level at 5 to 20 mg/kg, ip administered for 14 days by biochemical analysis; assay type: organism-based; conditions: in vivo, 336 h, dose 5-20 mg/kg, time 14 day
A549 = assay: Antiproliferative activity against human A549 cells assessed as inhibition of cell growth incubated for 48 hrs by MTT assay; assay type: functional, cell-based; conditions: A549, 48 h
MCF7 [19] = assay: Induction of apoptosis in human MCF7 cells assessed as increase in phosphorylated Bim protein expression incubated for 24 hrs by Western blotting analysis; assay type: functional, cell-based; conditions: dose 0.1-2 µM
MCF7 [20] = assay: Induction of apoptosis in human MCF7 cells assessed as late apoptotic cells at 0.1 uM incubated for 24 hrs by Annexin V-FITC/Propidium Iodide staining based flow cytometry analysis (reference value: 5.58 %); assay type: functional
[21] = Toxicity in BALB/c mouse transplanted with […] cells assessed as liver damage at 5 to 20 mg/kg, ip administered for 14 days by hematoxylin and eosin staining based analysis; assay type: organism-based; conditions: in vivo, 336 h, dose 5-20 mg/kg, time 14 day
MCF7 [22] = assay: Induction of apoptosis in human MCF7 cells assessed as decrease in Bcl-2 protein level incubated for 24 hrs by Western blotting analysis; assay type: functional, cell-based; conditions: dose 0.1-2 µM
[23] = Toxicity in BALB/c mouse transplanted with […] cells assessed as heart damage at 5 to 20 mg/kg, ip administered for 14 days by hematoxylin and eosin staining based analysis; assay type: organism-based; conditions: in vivo, 336 h, dose 5-20 mg/kg, time 14 day
4T1 [24] = assay: Antitumor activity against mouse 4T1 cells transplanted in BALB/c mouse assessed as tumor growth inhibition administered for 14 days; assay type: functional; conditions: dose 5-20 mg/kg, route ip, time 14.0 day

With `O=C(/C=C/c1ccc(Cl)c([N+](=O)[O-])c1)c1nccc2c1[nH]c1ccccc12` the Activity [1] was “Non-Toxic”, the Activity (MCF7 [2]) was 0.93% and the Activity (4T1 [3]) was 43.19%. The Activity (MCF7 [4]) was “Dose-Dependent Effect”, the Activity [5] was “Non-Toxic” and the Activity (MCF7 [6]) was 7.59%. For the same molecule, the Activity (MCF7 [7]) was 30.8%, the Activity [8] was “Non-Toxic” and the Activity (MCF7 [9]) was “Active”. For the same molecule, the Activity (MCF7 [10]) was “Dose-Dependent Effect”, the IC50 at 48 h [11] was 9610 nM and the Activity (MCF7 [12]) was “Dose-Dependent Effect”. The inhibition (MCF7 [13]) was “Dose-Dependent Effect”, the inhibition (MCF7 [14]) was “Active” and the Activity (MCF7 [15]) was 15.3%. For the same molecule, the Activity [16] was “Non-Toxic”, the IC50 (MDA-MB-231) was 980 nM and the Activity [17] was “Non-Toxic”. For the same molecule, the Activity [18] was “Non-Toxic”, the IC50 (A549) was 2020 nM and the Activity (MCF7 [19]) was “Dose-Dependent Effect”. For the same molecule, the Activity (MCF7 [20]) was 7.06%, the Activity [21] was “Non-Toxic” and the Activity (MCF7 [22]) was “Dose-Dependent Effect”. The Activity [23] was “Non-Toxic” and the TGI (4T1 [24]) was “Dose-Dependent Effect”.
